Source: ChEMBL document CHEMBL3885861, “Open TG-GATES”

Species on record: Rattus norvegicus
Test: Open TG-GATES - Regimen: Single
Assay type: toxicity, organism-based, Sprague-Dawley
Design: regimen Single, gender Male, age 6 weeks
Details: in vivo, po, route gavage; for Bas / Eos / Hb / Ht / Lym / MCH / MCHC / MCV / Mono / Neu / Plat / RBC / Ret / WBC: tissue Blood; for KIDNEY_L / KIDNEY_R / KIDNEY_TOTAL: tissue Kidney; for LIVER: tissue Liver; for A/G / ALP / ALT / AST / BUN / CRE / Ca / Cl / DBIL / GLC / IP / K / LDH / Na / PL / RALB / TBIL / TC / TG / TP / gamma-GTP: tissue Plasma
[1] = 0 mg/kg, 3 h, dose level Control
[2] = 0 mg/kg, 6 h, dose level Control
[3] = 0 mg/kg, 9 h, dose level Control
[4] = 0 mg/kg, 24 h, dose level Control

## Cc1ccc2cc3c(ccc4ccccc43)c3c2c1CC3 [3-METHYLCHOLANTHRENE]
[1]
  TERMINAL_BW: 209.2 g
  Bas: 0%
  Eos: 0.6%
  Hb: 12.8 g/dL
  Ht: 39.3%
  Lym: 79.2%
  MCH: 20.8 pg
  MCHC: 32.6%
  MCV: 63.7 fL
  Mono: 3.6%
  Neu: 16.2%
  Plat: 126.1 x10_4/uL
  RBC: 616.6 x10_4/ul
  Ret: 8.7%
  WBC: 119.3 x10_2/uL
  KIDNEY_L: 0.9 g
  KIDNEY_R: 0.9 g
  KIDNEY_TOTAL: 1.9 g
  LIVER: 9.3 g
  A/G: 1.1
  ALP: 1726.2 IU/L
  ALT: 46.2 IU/L
  AST: 77.6 IU/L
  BUN: 10.5 mg/dL
  CRE: 0.1 mg/dL
  Ca: 10.7 mg/dL
  Cl: 104.3 meq/L
  DBIL: 0.002 mg/dL
  GLC: 185.2 mg/dL
  IP: 7.7 mg/dL
  K: 3.9 meq/L
  LDH: 179.6 IU/L
  Na: 140.3 meq/L
  PL: 163.8 mg/dL
  RALB: 2.8 g/dL
  TBIL: 0.002 mg/dL
  TC: 77.2 mg/dL
  TG: 142.8 mg/dL
  TP: 5.6 g/dL
  gamma-GTP: 0.7 IU/L
[2]
  TERMINAL_BW: 206.1 g
  Bas: 0%
  Eos: 0.6%
  Hb: 12.8 g/dL
  Ht: 38.9%
  Lym: 69%
  MCH: 20.7 pg
  MCHC: 32.8%
  MCV: 63.2 fL
  Mono: 3.4%
  Neu: 26.2%
  Plat: 124.5 x10_4/uL
  RBC: 616.2 x10_4/ul
  Ret: 8.7%
  WBC: 125.8 x10_2/uL
  KIDNEY_L: 0.9 g
  KIDNEY_R: 0.9 g
  KIDNEY_TOTAL: 1.8 g
  LIVER: 8.4 g
  A/G: 1
  ALP: 1728.2 IU/L
  ALT: 38 IU/L
  AST: 69.6 IU/L
  BUN: 8.9 mg/dL
  CRE: 0.1 mg/dL
  Ca: 10.4 mg/dL
  Cl: 104.5 meq/L
  DBIL: 0.002 mg/dL
  GLC: 201.6 mg/dL
  IP: 9.9 mg/dL
  K: 4.3 meq/L
  LDH: 114.8 IU/L
  Na: 139.9 meq/L
  PL: 142.4 mg/dL
  RALB: 2.7 g/dL
  TBIL: 0.014 mg/dL
  TC: 80.2 mg/dL
  TG: 51 mg/dL
  TP: 5.5 g/dL
  gamma-GTP: 0.7 IU/L
[3]
  TERMINAL_BW: 204.4 g
  Bas: 0%
  Eos: 0.6%
  Hb: 12.5 g/dL
  Ht: 38.9%
  Lym: 75.2%
  MCH: 20.7 pg
  MCHC: 32.1%
  MCV: 64.5 fL
  Mono: 2.6%
  Neu: 21%
  Plat: 129.6 x10_4/uL
  RBC: 603.8 x10_4/ul
  Ret: 9%
  WBC: 80.7 x10_2/uL
  KIDNEY_L: 1 g
  KIDNEY_R: 1 g
  KIDNEY_TOTAL: 1.9 g
  LIVER: 8.4 g
  A/G: 1
  ALP: 1550.4 IU/L
  ALT: 33.8 IU/L
  AST: 63.4 IU/L
  BUN: 10.6 mg/dL
  CRE: 0.1 mg/dL
  Ca: 10.6 mg/dL
  Cl: 103.4 meq/L
  DBIL: 0.004 mg/dL
  GLC: 176.6 mg/dL
  IP: 10.9 mg/dL
  K: 4.4 meq/L
  LDH: 137.8 IU/L
  Na: 141.6 meq/L
  PL: 132.2 mg/dL
  RALB: 2.7 g/dL
  TBIL: 0.006 mg/dL
  TC: 71.4 mg/dL
  TG: 52.7 mg/dL
  TP: 5.5 g/dL
  gamma-GTP: 0.7 IU/L
[4]
  TERMINAL_BW: 220.6 g
  Bas: 0%
  Eos: 0.6%
  Hb: 12.6 g/dL
  Ht: 38.4%
  Lym: 79.4%
  MCH: 20.5 pg
  MCHC: 32.7%
  MCV: 62.7 fL
  Mono: 3.2%
  Neu: 16%
  Plat: 119.3 x10_4/uL
  RBC: 612.8 x10_4/ul
  Ret: 8%
  WBC: 100 x10_2/uL
  KIDNEY_L: 0.9 g
  KIDNEY_R: 1 g
  KIDNEY_TOTAL: 1.9 g
  LIVER: 9.8 g
  A/G: 1
  ALP: 1697 IU/L
  ALT: 38 IU/L
  AST: 72 IU/L
  BUN: 13.8 mg/dL
  CRE: 0.1 mg/dL
  Ca: 10.9 mg/dL
  Cl: 103 meq/L
  DBIL: 0 mg/dL
  GLC: 186.2 mg/dL
  IP: 7.1 mg/dL
  K: 4.4 meq/L
  LDH: 181 IU/L
  Na: 142 meq/L
  PL: 160.8 mg/dL
  RALB: 2.8 g/dL
  TBIL: 0.006 mg/dL
  TC: 82 mg/dL
  TG: 134.9 mg/dL
  TP: 5.5 g/dL
  gamma-GTP: 0.8 IU/L
10 mg/kg, 3 h, dose level Low
  TERMINAL_BW: 210.8 g
  Bas: 0%
  Eos: 0.8%
  Hb: 12.6 g/dL
  Ht: 39.3%
  Lym: 77.6%
  MCH: 20.5 pg
  MCHC: 32.2%
  MCV: 63.7 fL
  Mono: 3.4%
  Neu: 17.8%
  Plat: 130.6 x10_4/uL
  RBC: 616.6 x10_4/ul
  Ret: 9.1%
  WBC: 94.8 x10_2/uL
  KIDNEY_L: 0.9 g
  KIDNEY_R: 0.9 g
  KIDNEY_TOTAL: 1.8 g
  LIVER: 9.5 g
  A/G: 1
  ALP: 1720 IU/L
  ALT: 46.6 IU/L
  AST: 81 IU/L
  BUN: 13.1 mg/dL
  CRE: 0.1 mg/dL
  Ca: 10.9 mg/dL
  Cl: 103 meq/L
  DBIL: 0.002 mg/dL
  GLC: 175.4 mg/dL
  IP: 8.4 mg/dL
  K: 4.2 meq/L
  LDH: 201.8 IU/L
  Na: 139.7 meq/L
  PL: 172 mg/dL
  RALB: 2.9 g/dL
  TBIL: 0.004 mg/dL
  TC: 80 mg/dL
  TG: 185.2 mg/dL
  TP: 5.6 g/dL
  gamma-GTP: 0.7 IU/L
10 mg/kg, 6 h, dose level Low
  TERMINAL_BW: 205.3 g
  Bas: 0%
  Eos: 0.4%
  Hb: 12.9 g/dL
  Ht: 38.8%
  Lym: 73.8%
  MCH: 20.7 pg
  MCHC: 33.3%
  MCV: 62.1 fL
  Mono: 3.6%
  Neu: 21.2%
  Plat: 131.8 x10_4/uL
  RBC: 625.8 x10_4/ul
  Ret: 7.9%
  WBC: 136.1 x10_2/uL
  KIDNEY_L: 0.9 g
  KIDNEY_R: 0.9 g
  KIDNEY_TOTAL: 1.8 g
  LIVER: 8.3 g
  A/G: 1
  ALP: 1483.2 IU/L
  ALT: 37.6 IU/L
  AST: 74.6 IU/L
  BUN: 8.2 mg/dL
  CRE: 0.1 mg/dL
  Ca: 10.6 mg/dL
  Cl: 105.3 meq/L
  DBIL: 0.002 mg/dL
  GLC: 165.8 mg/dL
  IP: 9.2 mg/dL
  K: 4.2 meq/L
  LDH: 162 IU/L
  Na: 140.5 meq/L
  PL: 160.6 mg/dL
  RALB: 2.8 g/dL
  TBIL: 0.004 mg/dL
  TC: 87.6 mg/dL
  TG: 79.2 mg/dL
  TP: 5.6 g/dL
  gamma-GTP: 0.7 IU/L
10 mg/kg, 9 h, dose level Low
  TERMINAL_BW: 205.9 g
  Bas: 0%
  Eos: 0.8%
  Hb: 12.2 g/dL
  Ht: 37.7%
  Lym: 74.2%
  MCH: 20.2 pg
  MCHC: 32.5%
  MCV: 62 fL
  Mono: 2.8%
  Neu: 21.6%
  Plat: 122.2 x10_4/uL
  RBC: 608.4 x10_4/ul
  Ret: 8.9%
  WBC: 114.6 x10_2/uL
  KIDNEY_L: 0.9 g
  KIDNEY_R: 0.9 g
  KIDNEY_TOTAL: 1.7 g
  LIVER: 8.3 g
  A/G: 1
  ALP: 1540.8 IU/L
  ALT: 33.6 IU/L
  AST: 72 IU/L
  BUN: 11.6 mg/dL
  CRE: 0.1 mg/dL
  Ca: 10.5 mg/dL
  Cl: 104.7 meq/L
  DBIL: 0 mg/dL
  GLC: 174.4 mg/dL
  IP: 10.2 mg/dL
  K: 4.4 meq/L
  LDH: 186.6 IU/L
  Na: 142.1 meq/L
  PL: 155.2 mg/dL
  RALB: 2.8 g/dL
  TBIL: 0.002 mg/dL
  TC: 81.4 mg/dL
  TG: 90.6 mg/dL
  TP: 5.5 g/dL
  gamma-GTP: 0.8 IU/L
10 mg/kg, 24 h, dose level Low
  TERMINAL_BW: 216.8 g
  Bas: 0%
  Eos: 0.2%
  Hb: 12.7 g/dL
  Ht: 38.9%
  Lym: 79%
  MCH: 20.2 pg
  MCHC: 32.6%
  MCV: 62 fL
  Mono: 3.4%
  Neu: 16.2%
  Plat: 120.4 x10_4/uL
  RBC: 627.6 x10_4/ul
  Ret: 7.9%
  WBC: 105.1 x10_2/uL
  KIDNEY_L: 0.9 g
  KIDNEY_R: 1 g
  KIDNEY_TOTAL: 1.9 g
  LIVER: 10.7 g
  A/G: 1
  ALP: 1758 IU/L
  ALT: 40.6 IU/L
  AST: 73.8 IU/L
  BUN: 15.7 mg/dL
  CRE: 0.1 mg/dL
  Ca: 10.9 mg/dL
  Cl: 103.5 meq/L
  DBIL: 0.002 mg/dL
  GLC: 179.6 mg/dL
  IP: 6.9 mg/dL
  K: 4.4 meq/L
  LDH: 173.4 IU/L
  Na: 141.7 meq/L
  PL: 165.6 mg/dL
  RALB: 2.8 g/dL
  TBIL: 0.002 mg/dL
  TC: 81.6 mg/dL
  TG: 150.3 mg/dL
  TP: 5.5 g/dL
  gamma-GTP: 0.8 IU/L
